Tests used:
calves = test: Behavioural scans (lying and eating frequency) for three days following transport (Example 3); assay type: in vivo; conditions: three day average following transport
Source text: Corticosteroid treatment in conjunction with a nutritional supplement appears to enhance recovery from transport stress. The behavioral responses of animals were monitored following transport. Calves were allocated among five treatment groups as follows:
For all of the above groups, ten behavioural scans lasting one minute each were completed each day (pm) for three days following transport, thereby accumulating a total of 2,280 animal observations. Frequency measures of animals lying and eating were collected. It is well known to those skilled in the art that when animals are fatigued or morbid, they tend to lie down (Kilbour et al., 1984; Agri-Food Research Council Canadian Food Inspection Agency, 2001).

[1] = Weight loss of calves during 8 h transport (Example 2); assay type: in vivo, crossbred calves (cattle); conditions: calves ~800 lb, dexamethasone i.m. 0.61 mg per 50 lb, NT 1 kg/animal 24 h prior
Source text: The study in Example 1 was repeated with the addition of a nutritional supplement treatment group. The calves were raised at the Agriculture and Agri-Food Canada Lacombe Research Centre (Lacombe, Alberta, Canada) in accordance with standard operating procedures representative of the cattle industry. The breed, sex and weight of the calves were similar to those used in Example 1. Crossbred calves weighing approximately 800 lb (363 kg) on average were used.
Twenty-four hours prior to transport, the calves were assigned to the nutritional supplement groups and were offered 1 kg/animal of nutritional supplement or a “receiver calf” preparation (Supplement 1(d) as described in U.S. Pat. Nos. 5,505,968 and 5,728,675 to Schaefer et al. with differences being the selection of flavoring, form of an extruded pellet, and carrier being alfalfa) along with their regular feed ration (cereal grain silage). All calves in all treatments were kept on normal feed and water rations prior to transport.
Weights of all animals were recorded pre- and post-transport and metabolic activity was assessed by infrared thermographic analyses of the eye region. […] The animals were then loaded onto a commercial transport carrier and transported for 8 h prior to being offloaded, re-weighed, re-scanned with infrared and re-sampled for cortisol. […]

[2] = Weight loss of calves during 10 h transport (Example 1); assay type: in vivo, crossbred calves (cattle); conditions: calves ~600 lb, dexamethasone i.m. 2 mg per 50 lb body weight
Source text: Forty head of crossbred calves, both steers and heifers, and weighing approximately 600 lb (272 kg) on average were used. The calves were raised at the Agriculture and Agri-Food Canada Lacombe Research Centre (Lacombe, Alberta, Canada) in accordance with standard operating procedures representative of the cattle industry. The calves were randomly divided into two treatment groups designated as control (n=20) and dexamethasone-treated (n=20) and kept on standard feed (cereal grain silage) and water rations prior to transport.
Weights of all animals were recorded pre- and post-transport, metabolic activity was assessed by infrared thermographic analyses (IRT) of the eye region, and a salivary swab collection made for cortisol measurement.
The animals were subsequently loaded onto a commercial transport and transported for 10 h prior to being off loaded at the Agriculture and Agri-Food Canada Kamloops Research Centre (Kamloops, British Columbia, Canada). On arrival, the calves were again weighed, infrared images captured and a salivary swab collected. The animals were held overnight in pens with ad libitum access to water and cereal grain silage, and were again monitored for weight, thermal changes and salivary cortisol the following morning.

C[C@@H]1C[C@H]2[C@@H]3CCC4=CC(=O)C=C[C@]4(C)[C@@]3(F)[C@@H](O)C[C@]2(C)[C@@]1(O)C(=O)CO [dexamethasone]
Eating Frequency (calves; control away 20%, control home 78%): 24% | Lying Frequency (calves; control away 97%, control home 23%): 0% | weight loss during transport ([1]; control lost 21.5 kg): 17.6 kg | weight loss during transport ([1]; control lost 47.36 lb, P<0.05): 38.87 lb | weight loss during transport ([2]; control lost 5%): 3.2 % body weight | weight loss during transport ([2]; control lost 13.8 kg): 8.7 kg | weight loss during transport ([2]; control lost 30.5 lb, P<0.05): 19.2 lb

Source: patent US20050277624A1, “Use of corticosteroids alone or in conjunction with nutritional therapy to reduce stress in animals” (priority 2004, published 2005)
